# Results as given in patent US20240294881A1, “CELL CULTURE SUPPLEMENT FOR PRODUCING STEM CELLS, AND METHOD FOR PRODUCING STEM CELLS” (OPTICELL, INC, priority 2021, published 2024).
# Assays:
# Assay in all cases: Real-time PCR of cancer stem cell and undifferentiated stem cell marker genes in cancer cell spheroids
# Format in all cases: cell-based, human
# [1] = test system: A549 lung cancer cells; details: control no supplement, 2D adhesion proliferation, day 4 = 1.0
# Protocol: (§1) A culture vessel treated with the cell culture supplement was prepared in the same manner as in Example 7, and the same three types of cancer cells as those in Example 7 were cultured. On day 4 and day 15 after the start of culture, spheroids of each of the three types of cancer cells were taken from the culture vessel and collected in an individual 15-mb centrifuge tube, followed by washing with phosphate buffered saline (−). After removal of the medium, cancer cells cultured in the plate free of the cell culture supplement (control) were washed with PBS (−), detached from the plate with 0.05% trypsin-EGTA and dissociated. The cancer cells were then collected in a 15-mL centrifuge tube and washed again with PBS (−). mRNA was extracted from the collected spheroids and control cells, and the expression of cancer stem cell marker genes was analyzed by real-time PCR.
# (§2) Specifically, a NucleoZOL reagent (Macherey-Nagel) reagent was added to each type of cells, and RNA was extracted according to the protocol recommended by the reagent manufacturer and used as template RNA for detecting stem cell markers. For real-time PCR analysis, PCR probes from QuantiFast Probe RT-PCR Kits (QIAGEN; No. 204454) and TaqMan Gene Expression Assay Probe (Thermo Fisher Scientific) were used. PCR analysis was performed with a Rotor-Gene Q (QIAGEN) apparatus. For probes for detecting the expression of cancer stem cell marker genes, the following three PCR probes were used: CD24 (mucin-type glycoprotein, ligand for P-selectin, Oncogene), CD44 (cell surface glycoprotein involved cell-cell interaction, adhesion and migration, cancer stem cell marker), CD133 (five transmembrane glycoprotein, stem cell marker and cancer stem cell marker protein). B-actin was used as an endogenous control gene. For probes for detecting the expression of undifferentiated stem cell marker genes, three transcription factors, SOX2 (sex-determining region Y-box 2), OCT4 (octamer binding transcription factor 4), and NANOG (homeodomain transcription factor), which are used in the production of iPS cells, were used; and β-actin was used as the endogenous control gene. In the gene expression analysis, relative quantification was performed according to the ΔΔCt method (Delta Delta Ct method). The results of analysis according to the ΔΔCt method show the amount of a gene expressed by control cells under the conditions of “no cell culture supplement, 2D adhesion proliferation, day 4” as “1.0” in relative terms, and the increase rate in “the expression level in spheroid proliferation on day 15” was determined by comparison (FIGS. 23 to 25).
# (§3) Coating of a culture vessel was completed in the same manner as in Examples 7 and 11, and three types of cancer cells, A549 cells, ES2 cells, and 143B cells, were cultured. For probes for detecting the expression of undifferentiated stem cell marker genes, the following three transcription factors were used: SOX2 (sex-determining region Y-box 2), OCT4 (octamer binding transcription factor 4), and NANOG (homeodomain transcription factor); and β-actin was used as an endogenous control gene. In the gene expression analysis, relative quantification was performed according to the ΔΔCt method (Delta Delta Ct method). The results of analysis according to the ΔΔCt method show the amount of a gene expressed by control cells under the conditions of “no cell culture supplement, 2D adhesion proliferation, day 4” as “1.0” in relative terms, and the increase rate in “the expression level in spheroid proliferation on day 15” was determined by comparison (FIGS. 26 to 28).
# [2] = test system: ES2 ovarian cancer cells; details: for CD24 gene expression level (increase vs control) / CD44 gene expression level (increase vs control) / NANOG gene expression level (increase vs control) / OCT4 gene expression level (increase vs control) / SOX2 gene expression level (increase vs control): control no supplement, 2D adhesion proliferation, day 4 = 1.0
# Protocol: as §1, §2, §3
# [3] = test system: HOS-143B osteosarcoma cells; details: control no supplement, 2D adhesion proliferation, day 4 = 1.0
# Protocol: as §1, §2, §3
substance,measurement,setting,value
(Pro-Hyp-Gly)n [cell culture supplement],CD24 gene expression level (increase vs control),[1]; day 4 of spheroid culture,2.2 fold
same,CD44 gene expression level (increase vs control),[1]; day 4 of spheroid culture,1.6 fold
same,CD133 gene expression level (increase vs control),[1]; day 4 of spheroid culture,3.4 fold
same,NANOG gene expression level (increase vs control),[1]; day 4 of spheroid culture,10.6 fold
same,OCT4 gene expression level (increase vs control),[1]; day 4 of spheroid culture,1.6 fold
same,SOX2 gene expression level (increase vs control),[1]; day 4 of spheroid culture,5.0 fold
same,CD24 gene expression level (increase vs control),[1]; day 15 of spheroid culture,4.2 fold
same,CD44 gene expression level (increase vs control),[1]; day 15 of spheroid culture,2.9 fold
same,CD133 gene expression level (increase vs control),[1]; day 15 of spheroid culture,13.5 fold
same,NANOG gene expression level (increase vs control),[1]; day 15 of spheroid culture,55.7 fold
same,OCT4 gene expression level (increase vs control),[1]; day 15 of spheroid culture,3.7 fold
same,SOX2 gene expression level (increase vs control),[1]; day 15 of spheroid culture,6.0 fold
same,CD24 gene expression level (increase vs control),[2]; day 4 of spheroid culture,11.6 fold
same,CD44 gene expression level (increase vs control),[2]; day 4 of spheroid culture,1.3 fold
same,NANOG gene expression level (increase vs control),[2]; day 4 of spheroid culture,3.9 fold
same,OCT4 gene expression level (increase vs control),[2]; day 4 of spheroid culture,2.6 fold
same,SOX2 gene expression level (increase vs control),[2]; day 4 of spheroid culture,1.1 fold
same,CD133 gene expression level (increase vs day 4 spheroid culture),"[2]; day 15 of spheroid culture, CD133 on day 4 in spheroid culture taken as control value (1.0), not detected in adhesion proliferation cells",8.5 fold
same,CD24 gene expression level (increase vs control),[2]; day 15 of spheroid culture,63.2 fold
same,CD44 gene expression level (increase vs control),[2]; day 15 of spheroid culture,2.9 fold
same,NANOG gene expression level (increase vs control),[2]; day 15 of spheroid culture,10.9 fold
same,OCT4 gene expression level (increase vs control),[2]; day 15 of spheroid culture,4.6 fold
same,SOX2 gene expression level (increase vs control),[2]; day 15 of spheroid culture,3.4 fold
same,CD24 gene expression level (increase vs control),[3]; day 4 of spheroid culture,1.34 fold
same,CD44 gene expression level (increase vs control),[3]; day 4 of spheroid culture,2.3 fold
same,"CD133 gene expression level (relative to control, printed as decreased)",[3]; day 4 of spheroid culture,0.3 fold
same,NANOG gene expression level (increase vs control),[3]; day 4 of spheroid culture,1.6 fold
same,OCT4 gene expression level (increase vs control),[3]; day 4 of spheroid culture,2.5 fold
same,SOX2 gene expression level (increase vs control),[3]; day 4 of spheroid culture,3.5 fold
same,CD24 gene expression level (increase vs control),[3]; day 15 of spheroid culture,1.2 fold
same,CD44 gene expression level (increase vs control),[3]; day 15 of spheroid culture,1.9 fold
same,CD133 gene expression level (increase vs control),[3]; day 15 of spheroid culture,2.1 fold
same,NANOG gene expression level (increase vs control),[3]; day 15 of spheroid culture,1.4 fold
same,OCT4 gene expression level (increase vs control),[3]; day 15 of spheroid culture,2.4 fold
same,SOX2 gene expression level (increase vs control),[3]; day 15 of spheroid culture,1.6 fold
